Measured values taken from patent US20250122225A1, “MASP-2 INHIBITORS AND METHODS OF USE” (Omeros Corporation, priority 2023, published 2025).
pKi: −log10 of the molar value. Structures can show the parent of a compound that is named as a salt.

Experiments:
MASP-2 (CCP1-CCP2-SP) = biological target: T1, MASP-2 (CCP1-CCP2-SP) (Homo sapiens, UniProt O00187); test: Enzymatic assay for MASP-2 inhibitory activity (fluorogenic substrate); format: biochemical
T1 construct: 15 μL of Enzyme MASP-2 (CCP1-CCP2-SP) in Assay Buffer
T1 sequence (O00187 445-686 limits assumed): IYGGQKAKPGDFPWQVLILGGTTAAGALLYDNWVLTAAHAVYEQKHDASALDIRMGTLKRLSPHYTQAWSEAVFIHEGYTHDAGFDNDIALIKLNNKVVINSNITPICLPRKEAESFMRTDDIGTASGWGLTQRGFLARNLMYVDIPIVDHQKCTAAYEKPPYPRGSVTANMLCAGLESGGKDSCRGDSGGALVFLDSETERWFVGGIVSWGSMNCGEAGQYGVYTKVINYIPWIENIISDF
T1 sequence (O00187 287-444 partner limits assumed): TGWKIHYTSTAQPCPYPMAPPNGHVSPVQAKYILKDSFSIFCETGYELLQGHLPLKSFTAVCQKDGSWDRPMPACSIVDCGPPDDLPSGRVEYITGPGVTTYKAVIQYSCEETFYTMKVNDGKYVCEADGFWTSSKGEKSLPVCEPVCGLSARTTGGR
Procedure, shortened: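 MASP-2 (CCP1-CCP2-SP) cleaved a fluorogenic substrate based on the C2 cleavage site in 20 mM HEPES pH 7.4, 140 mM NaCl, 0.1% Tween 20 at room temperature. After 20 min the reaction was stopped with 0.1 M acetic acid and fluorescence read. % activity was normalized to DMSO-only and no-enzyme controls; IC50 taken as Ki.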

human α-thrombin = biological target: T2, human α-thrombin (Homo sapiens, UniProt P00734); test: Enzymatic assay for thrombin (fluorogenic peptide substrate Boc-VPR-AMC); format: biochemical
T2 construct: enzyme (human α-thrombin (BioPharm® Lab.)) in assay buffer; purchased BioPharm® Lab
Procedure, shortened: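 Human α-thrombin was run with the fluorogenic substrate Boc-VPR-AMC in 20 mM Hepes pH 7.4, 140 mM NaCl, 0.1% Tween 20 at room temperature for 20 min, then stopped with 0.1 M acetic acid. % activity was normalized to DMSO and no-enzyme controls. Under linear conditions IC50 equalled Ki, except for tight-binding inhibitors.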

| SMILES | pKi (MASP-2 (CCP1-CCP2-SP)) | pKi (human α-thrombin) |
| --- | --- | --- |
| N#Cc1cccc(CNc2nc(Cl)c3n(c2=O)[C@H](C(=O)NCc2cc4cnccc4[nH]2)CC3)c1 [Compound 144, (S)-N-((1H-pyrrolo[3,2-c]pyridin-2-yl)methyl)-1-chloro-3-((3-cyanobenzyl)amino)-4-oxo-4,6,7,8-tetrahydropyrrolo[1,2-a]pyrazine-6-carboxamide] | > 6.30 | 5.00 to 5.60 |
| O=C(NCc1cc2cnccc2[nH]1)[C@@H]1CCc2c(Cl)nc(NCC3CCc4ccccc4C3)c(=O)n21 (stereo partly drawn) [Compound 145, (6S)-N-((1H-pyrrolo[3,2-c]pyridin-2-yl)methyl)-1-chloro-4-oxo-3-(((1,2,3,4-tetrahydronaphthalen-2-yl)methyl)amino)-4,6,7,8-tetrahydropyrrolo[1,2-a]pyrazine-6-carboxamide] | > 6.30 | < 4.60 |
| Cc1nc(N)ccc1CNC(=O)[C@@H]1CCc2c(Cl)nc(NCC3COC3)c(=O)n21 [Compound 146, (S)-N-((6-amino-2-methylpyridin-3-yl)methyl)-1-chloro-3-((oxetan-3-ylmethyl)amino)-4-oxo-4,6,7,8-tetrahydropyrrolo[1,2-a]pyrazine-6-carboxamide] | 5.60 to 6.30 | 4.60 to 5.00 |
| O=C(NCc1cc2cnccc2[nH]1)[C@@H]1CCc2cnc(NCc3cccc(-c4ccccc4)c3)c(=O)n21 [Compound 147, (S)—N-((1H-pyrrolo[3,2-c]pyridin-2-yl)methyl)-3-(([1,1′-biphenyl]-3-ylmethyl)amino)-4-oxo-4,6,7,8-tetrahydropyrrolo[1,2-a]pyrazine-6-carboxamide] | > 6.30 | 5.00 to 5.60 |
| O=C(NCc1cc2cnccc2[nH]1)[C@@H]1CCc2cnc(NCC3CCc4ccccc4C3)c(=O)n21 (some centres unmarked) [Compound 148] | > 6.30 | 5.60 to 6.30 |
| Cc1nc(N)ccc1CNC(=O)C1CCc2c(Cl)nc(NCc3cnccn3)c(=O)n21 (centres unmarked) [Compound 149, N-((6-amino-2-methylpyridin-3-yl)methyl)-1-chloro-4-oxo-3-((pyrazin-2-ylmethyl)amino)-4,6,7,8-tetrahydropyrrolo[1,2-a]pyrazine-6-carboxamide] | > 6.30 | 5.00 to 5.60 |
| Cc1nc(N)ccc1CNC(=O)C1CCc2c(Cl)nc(NCc3cncnc3)c(=O)n21 (centres unmarked) [Compound 150] | > 6.30 | 5.00 to 5.60 |
| CC[C@H]1C[C@@H](C(=O)NCc2cc3cnccc3[nH]2)n2c1cnc(NCc1ccccc1)c2=O [Compound 151, (6S,8S)—N-((1H-pyrrolo[3,2-c]pyridin-2-yl)methyl)-3-(benzylamino)-8-ethyl-4-oxo-4,6,7,8-tetrahydropyrrolo[1,2-a]pyrazine-6-carboxamide] | > 6.30 | 5.60 to 6.30 |
| C[C@H]1C[C@@H](C(=O)NCc2cc3cnccc3[nH]2)n2c1cnc(NCc1ccccc1)c2=O [Compound 152, (6S,8S)-N-((1H-pyrrolo[3,2-c]pyridin-2-yl)methyl)-3-(benzylamino)-8-methyl-4-oxo-4,6,7,8-tetrahydropyrrolo[1,2-a]pyrazine-6-carboxamide] | > 6.30 | 5.00 to 5.60 |
| Cc1cc(C)cc(CNc2ncc3n(c2=O)[C@H](C(=O)NCc2cc4cnccc4[nH]2)C[C@@H]3C)c1 [Compound 153, (6S,8S)-N-((1H-pyrrolo[3,2-c]pyridin-2-yl)methyl)-3-((3,5-dimethylbenzyl)amino)-8-methyl-4-oxo-4,6,7,8-tetrahydropyrrolo[1,2-a]pyrazine-6-carboxamide] | > 6.30 | 5.00 to 5.60 |
| CC[C@H]1C[C@@H](C(=O)NCc2ccc(N)nc2C)n2c1cnc(NCc1ccccc1)c2=O [Compound 154, (6S,8S)-N-((6-amino-2-methylpyridin-3-yl)methyl)-3-(benzylamino)-8-ethyl-4-oxo-4,6,7,8-tetrahydropyrrolo[1,2-a]pyrazine-6-carboxamide] | > 6.30 | > 6.30 |
| CC[C@H]1C[C@@H](C(=O)NCc2ccc(N)nc2C)n2c1cnc(NCc1cc(C)cc(C)c1)c2=O [Compound 156, (6S,8S)-N-((6-amino-2-methylpyridin-3-yl)methyl)-3-((3,5-dimethylbenzyl)amino)-8-ethyl-4-oxo-4,6,7,8-tetrahydropyrrolo[1,2-a]pyrazine-6-carboxamide] | > 6.30 | > 6.30 |
| CC[C@H]1C[C@@H](C(=O)NCc2ccc(N)nc2)n2c1cnc(NCc1cc(C)cc(C)c1)c2=O [Compound 157, (6S,8S)-N-((6-aminopyridin-3-yl)methyl)-3-((3,5-dimethylbenzyl)amino)-8-ethyl-4-oxo-4,6,7,8-tetrahydropyrrolo[1,2-a]pyrazine-6-carboxamide] | > 6.30 | > 6.30 |
| CC[C@H]1C[C@@H](C(=O)NCc2cc3c(s2)CNC3)n2c1c(Cl)nc(NCc1ccccc1)c2=O [Compound 158, (6S,8S)-3-(benzylamino)-1-chloro-N-((5,6-dihydro-4H-thieno[2,3-c]pyrrol-2-yl)methyl)-8-ethyl-4-oxo-4,6,7,8-tetrahydropyrrolo[1,2-a]pyrazine-6-carboxamide hydrochloride] | > 6.30 | 5.00 to 5.60 |
| CC[C@H]1C[C@@H](C(=O)NCc2cc3cnccc3[nH]2)n2c1c(Cl)nc(NCc1ccccc1)c2=O [Compound 159, (6S,8S)—N-((1H-pyrrolo[3,2-c]pyridin-2-yl)methyl)-3-(benzylamino)-1-chloro-8-ethyl-4-oxo-4,6,7,8-tetrahydropyrrolo[1,2-a]pyrazine-6-carboxamide] | > 6.30 | 4.60 to 5.00 |
| CC[C@H]1C[C@@H](C(=O)NCc2cc3cnccc3[nH]2)n2c1c(Cl)nc(NCc1cc(C)cc(C)c1)c2=O [Compound 160, (6S,8S)-N-((1H-pyrrolo[3,2-c]pyridin-2-yl)methyl)-1-chloro-3-((3,5-dimethylbenzyl)amino)-8-ethyl-4-oxo-4,6,7,8-tetrahydropyrrolo[1,2-a]pyrazine-6-carboxamide] | > 6.30 | < 4.60 |
| CC[C@H]1C[C@@H](C(=O)NCc2cc3c(s2)CNC3)n2c1cnc(NCc1ccccc1)c2=O [Compound 161, (6S,8S)-3-(benzylamino)-N-((5,6-dihydro-4H-thieno[2,3-c]pyrrol-2-yl)methyl)-8-ethyl-4-oxo-4,6,7,8-tetrahydropyrrolo[1,2-a]pyrazine-6-carboxamide hydrochloride] | > 6.30 | 5.60 to 6.30 |
| O=C(NCc1cc2cnccc2[nH]1)[C@@H]1CCc2c(Cl)nc(NCc3ccc4c(c3)CCCC4)c(=O)n21 [Compound 162, (S)—N-((1H-pyrrolo[3,2-c]pyridin-2-yl)methyl)-1-chloro-4-oxo-3-(((5,6,7,8-tetrahydronaphthalen-2-yl)methyl)amino)-4,6,7,8-tetrahydropyrrolo[1,2-a]pyrazine-6-carboxamide] | > 6.30 | < 4.60 |
| Cc1cc(F)cc(CNc2ncc3n(c2=O)[C@@H](C(=O)NCc2ccc(N)nc2C)CC3)c1 [Compound 163, (R)—N-((6-amino-2-methylpyridin-3-yl)methyl)-3-((3-fluoro-5-methylbenzyl)amino)-4-oxo-4,6,7,8-tetrahydropyrrolo[1,2-a]pyrazine-6-carboxamide] | > 6.30 | > 6.30 |
| COc1cc(C)cc(CNc2ncc3n(c2=O)[C@@H](C(=O)NCc2cc4cnccc4[nH]2)CC3)c1 [Compound 164] | > 6.30 | 5.00 to 5.60 |
| Cc1cc(F)cc(CNc2nc(Cl)c3n(c2=O)[C@H](C(=O)NCc2cnc4ccccn24)CC3)c1 [Compound 165, (S)-1-chloro-3-((3-fluoro-5-methylbenzyl)amino)-N-(imidazo[1,2-a]pyridin-3-ylmethyl)-4-oxo-4,6,7,8-tetrahydropyrrolo[1,2-a]pyrazine-6-carboxamide trifluoroacetate] | 4.60 to 5.00 | < 4.60 |
| Cc1nc(N)ccc1CNC(=O)[C@@H]1CCc2cnc(NCc3cnn(-c4ccccc4)c3)c(=O)n21 [Compound 166, (S)—N-((6-amino-2-methylpyridin-3-yl)methyl)-4-oxo-3-(((1-phenyl-1h-pyrazol-4-yl)methyl)amino)-4,6,7,8-tetrahydropyrrolo[1,2-a]pyrazine-6-carboxamide trifluoroacetate] | > 6.30 | 5.60 to 6.30 |
| Cc1nc(N)ccc1CNC(=O)[C@@H]1CCc2cnc(NCc3cnn(C)c3)c(=O)n21 [Compound 167, (S)-N-((6-amino-2-methylpyridin-3-yl)methyl)-3-(((1-methyl-1H-pyrazol-4-yl)methyl)amino)-4-oxo-4,6,7,8-tetrahydropyrrolo[1,2-a]pyrazine-6-carboxamide trifluoroacetate] | > 6.30 | 5.60 to 6.30 |
| Cc1nc(N)ccc1CNC(=O)[C@@H]1CCc2cnc(NCc3cn4c(n3)CCCC4)c(=O)n21 [Compound 168, (S)-N-((6-amino-2-methylpyridin-3-yl)methyl)-4-oxo-3-(((5,6,7,8-tetrahydroimidazo[1,2-a]pyridin-2-yl)methyl)amino)-4,6,7,8-tetrahydropyrrolo[1,2-a]pyrazine-6-carboxamide trifluoroacetate] | 5.60 to 6.30 | 5.00 to 5.60 |
| Cc1nc(N)ccc1CNC(=O)[C@@H]1CCc2cnc(NCc3cccc(-n4cccn4)c3)c(=O)n21 [Compound 169, (S)-3-((3-(1H-pyrazol-1-yl)benzyl)amino)-N-((6-amino-2-methylpyridin-3-yl)methyl)-4-oxo-4,6,7,8-tetrahydropyrrolo[1,2-a]pyrazine-6-carboxamide trifluoroacetate] | > 6.30 | > 6.30 |
